Assay results published in publication PMC11714206, “Massively Parallel Screening of Toll/Interleukin‐1 Receptor (TIR)‐Derived Peptides Reveals Multiple Toll‐Like Receptors (TLRs)‐Targeting Immunomodulatory Peptides” (Advanced Science, 2024).

Molecular target: T1, MAL^TIR (Homo sapiens, UniProt P58753)
T1 construct: MAL (residues 79–221); 6xHis; made in house; host or cells: E. coli BL21 (DE3)
Test: T‐Surf phage library (P8 and P3) selection against MAL^TIR, four rounds, NGS read counts
Type: binding
Conditions: for P8_MAL Rank (after) / P8_MAL Rank (before): P8 library; for P3_MAL Rank (after) / P3_MAL Rank (before): P3 library; for Population: 4th round of selection against MAL TIR, share of NGS reads
Procedure: T‐Surf libraries were screened against the immobilized TIR domains of two major human TLR adaptor proteins, MAL^TIR and MyD88^TIR, allowing cross‐species selection of TIR‐binding motifs with 190 946 TIR‐derived peptides in a single binding assay (Scheme 1). Enriched phage pools from the fourth round of selection were analyzed using NGS after barcoding the peptide‐coding regions of the phage pools.
Phage display screening was performed by coating two wells of a 96‐well plate (Maxisorp, Thermo Fisher Scientific) with 100 µL of 5 µg mL^−1 TIR domains overnight; then, the coated wells were blocked with 200 µL of blocking buffer (0.2% BSA in PBS) and set aside for 1 h at 4 °C with gentle shaking. Next, 100 µL of the phage library was added to the wells and incubated for 1 h at room temperature (RT; 20 – 22 °C) with gentle shaking. The plate was washed four times with PBS containing 0.5% Tween‐20; the bound phages were eluted by adding 100 µL of 100 mM HCl to each well. The elute was neutralized with 10 µL of 1.0 M Tris‐HCl (pH 11.0). E. coli TG1 cells were grown to the log phase (A600 = ≈0.6), and 1 mL of the culture was incubated with 100 µL of the eluted phages for 30 min at 37 °C, with shaking at 200 rpm. Next, 1 µL of M13KO7 helper phages was added, followed by incubation for 45 min at 37 °C, with shaking. Subsequently, the cells were transferred to 25 mL of 2× yeast extract tryptone/carbenicillin/kanamycin medium and incubated overnight at 37 °C with shaking at 200 rpm. The amplified phages were precipitated with 20% PEG‐8000/2.5 M NaCl to be used for the next round of selection.
The naïve T‐Surf libraries in P8 and P3 and the enriched phage pools after four rounds were barcoded for NGS as previously described.^[ [59] ^] Briefly, 5 µL of the phage pool was used as a template for 20 cycles of a 50 µL PCR reaction using […] each of forward and reverse barcoded primers and PrimeSTAR Max DNA Polymerase. The PCR products were purified using Expin Gel SV (GeneAll). The NGS samples were quantified using qPCR, following the qPCR Quantification Protocol Guide (KAPA Library Quantification kits for Illumina Sequencing Platform), and qualified using the TapeStation High Sensitivity D1000 ScreenTape (Agilent Technologies). The indexed libraries were further sequenced by Macrogen (Seoul, Republic of Korea) using the NovaSeq platform (Illumina) with 100 bp paired‐end reads. The reads were demultiplexed by barcodes and filtered for an average Phred quality score of at least 30, followed by trimming the flanking consensus sequences using Cutadapt (version 2.3). Peptide sequence populations were analyzed according to the read counts.

[1] = selection against MAL, rank after grouping
[2] = selection against MAL, rank before grouping
[3] = P8_MAL pool: P8 T-Surf phage library
[4] = P8_MAL: rank by count after grouping
[5] = P8_MAL: rank by count before grouping
[6] = P3_MAL: rank by count after grouping
[7] = P3_MAL: rank by count before grouping
[8] = 4R selection against MAL, rank after grouping
[9] = 4R selection against MAL, rank before grouping
[10] = selection against MAL TIR, rank by count after grouping
[11] = selection against MAL TIR, rank by count before grouping
[12] = P3_MAL pool: P3 T-Surf phage library
[13] = selection against MAL, rank by count after grouping
[14] = selection against MAL, rank by count before grouping

T1 sequence (P58753 79-221): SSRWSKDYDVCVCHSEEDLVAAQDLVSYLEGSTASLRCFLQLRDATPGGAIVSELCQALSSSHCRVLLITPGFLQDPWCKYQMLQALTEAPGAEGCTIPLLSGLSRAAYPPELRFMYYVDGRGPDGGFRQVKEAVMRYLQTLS

## AFLYTFLINLTHPTKV
[1]
  P8_MAL Rank (after): 514
[2]
  P8_MAL Rank (before): 1851

## LKGESWRQAREKAGKL
[1]
  P3_MAL Rank (after): 533
[2]
  P3_MAL Rank (before): 2303

## LFFWESLKQLLRSGGR
[3]
  Population: 0.0034%

## AFLYTFLINLTIRPIX
[3]
  Population: 0.00371%

## AFLYTFLINLTHLPNF
[4]
  Rank (after): 95
[5]
  Rank (before): 1842

## SSFREGLASAGTEQK
[6]
  Rank (after): 156
[7]
  Rank (before): 1037

## AFCWAQLKSVLGNPTR
[4]
  Rank (after): 123
[5]
  Rank (before): 1781

## RKFWAYLFQALANKGS
[1]
  P8_MAL Rank (after): 551
[2]
  P8_MAL Rank (before): 2253

## RLRKWKEALHQFHSWG
[8]
  P3_MAL Rank (after): 636
[9]
  P3_MAL Rank (before): 2547

## YAFTGHLHRYLVQRDM
[6]
  Rank (after): 391
[7]
  Rank (before): 1403

## WFYERLVSLIQRDTTV
[10]
  P8_MAL Rank (after): 212
[11]
  P8_MAL Rank (before): 1278

## LFFWESLKQLLRSVGR
[3]
  Population: 0.0034%

## NHSRNALTAAANLSGW
[10]
  P3_MAL Rank (after): 263
[11]
  P3_MAL Rank (before): 3433

## LFFWESLKQLLRTVLGKPTM
[8]
  P8_MAL Rank (after): 669
[9]
  P8_MAL Rank (before): 2109

## WFYERPVSLILRDTIV
[4]
  Rank (after): 153
[5]
  Rank (before): 1256

## AFLCTHLKNLIHKTTI
[4]
  Rank (after): 415
[5]
  Rank (before): 1755

## WIYERLVSRILRDTKV
[4]
  Rank (after): 163
[5]
  Rank (before): 1430

## WFYESLVSLLTRDTKV
[1]
  P8_MAL Rank (after): 547
[2]
  P8_MAL Rank (before): 1298

## YAFTGHPHRSLVQRGV
[10]
  P3_MAL Rank (after): 271
[11]
  P3_MAL Rank (before): 1446

## QLIQQLIELHLDQLHL
[8]
  P8_MAL Rank (after): 653
[9]
  P8_MAL Rank (before): 2349

## TFLGHLYNALVQAAF
[4]
  Rank (after): 453
[5]
  Rank (before): 2584

## HQAFWERLWAKMQAPI
[8]
  P3_MAL Rank (after): 659
[9]
  P3_MAL Rank (before): 2860

## RYIMPHPQELIQKNS
[6]
  Rank (after): 389
[7]
  Rank (before): 2337

## FTLAVQVRNLLVGAFI
[10]
  P8_MAL Rank (after): 262
[11]
  P8_MAL Rank (before): 1099

## AFLYTFLNNLTHPTNF
[3]
  Population: 0.00309%

## RNLAGLVYDCLTKTGA
[6]
  Rank (after): 407
[7]
  Rank (before): 2606

## WFYERLVSLLLRATKV
[4]
  Rank (after): 170
[5]
  Rank (before): 1156

## WFYERLVRLILRDTKV
[3]
  Population: 0.00309%

## YAFTGHLHRYLVQRAL
[12]
  Population: 0.00451%
[6]
  Rank (after): 104
[7]
  Rank (before): 149

## AFFLAQLKSVLGNPTT
[8]
  P8_MAL Rank (after): 670
[9]
  P8_MAL Rank (before): 1579

## LFFWGSLKHLLRSGCR
[13]
  P8_MAL Rank (after): 691
[14]
  P8_MAL Rank (before): 2059

## HFFLDSTEKHSGRNQL
[10]
  P8_MAL Rank (after): 277
[11]
  P8_MAL Rank (before): 2392

## WFYERLVGLILRETEG
[8]
  P8_MAL Rank (after): 660
[9]
  P8_MAL Rank (before): 1163

## RRTFLSHLQHHFASKG
[12]
  Population: 0.05%
[6]
  Rank (after): 98
[7]
  Rank (before): 98

## RGFRSHLRQHLQAKDH
[13]
  P3_MAL Rank (after): 772
[14]
  P3_MAL Rank (before): 2410

## SLFLSSRFKDDADLVGQ
[6]
  Rank (after): 433
[7]
  Rank (before): 3057

## ALFWAQLKCVMGNPAM
[13]
  P8_MAL Rank (after): 705
[14]
  P8_MAL Rank (before): 1932

## SSFREGLWRLRELGKK
[8]
  P3_MAL Rank (after): 622
[9]
  P3_MAL Rank (before): 3161

## AFFWAQQKSVLGDPTM
[13]
  P8_MAL Rank (after): 722
[14]
  P8_MAL Rank (before): 1646

## WFYERLLSLILRDTKV
[3]
  Population: 0.00278%

## YAFTGHLHHIWCSVA
[13]
  P3_MAL Rank (after): 686
[14]
  P3_MAL Rank (before): 1430

## NNLFNALVSKNIRTFM
[10]
  P3_MAL Rank (after): 258
[11]
  P3_MAL Rank (before): 3481

## RSFRDRLWRHLQLNEK
[1]
  P3_MAL Rank (after): 506
[2]
  P3_MAL Rank (before): 2575

## RFFLESLKQLLRSDGR
[4]
  Rank (after): 455
[5]
  Rank (before): 2301

## LVAHGISNKLKIFATI
[6]
  Rank (after): 387
[7]
  Rank (before): 2092

## ARFKDMIINKWRTALTQAAN
[1]
  P3_MAL Rank (after): 513
[2]
  P3_MAL Rank (before): 1847

## LFFWEKLKSVLGNPTM
[13]
  P8_MAL Rank (after): 693
[14]
  P8_MAL Rank (before): 2067

## PKLRTKVLKYQMRTKT
[6]
  Rank (after): 426
[7]
  Rank (before): 2762

## SLLKYKEALPQFHSWL
[8]
  P3_MAL Rank (after): 586
[9]
  P3_MAL Rank (before): 2982

## YAFTGHLHRYLVQRGEP
[6]
  Rank (after): 443
[7]
  Rank (before): 1397

## ESILNQLRRSSHSISN
[1]
  P3_MAL Rank (after): 542
[2]
  P3_MAL Rank (before): 2054

## AFFWEQLRPALKERLP
[13]
  P3_MAL Rank (after): 746
[14]
  P3_MAL Rank (before): 1787

## WLYVRLVSLILRDTKV
[4]
  Rank (after): 144
[5]
  Rank (before): 1392

## VGWFLHTLSQHILKREK
[6]
  Rank (after): 168
[7]
  Rank (before): 528

## DQWRNALTAAANLSGW
[12]
  Population: 0.00526%

## SSFREDLWRLRERSKQ
[1]
  P3_MAL Rank (after): 491
[2]
  P3_MAL Rank (before): 3187

## VEPTQVRKQSGSVKNA
[10]
  P3_MAL Rank (after): 244
[11]
  P3_MAL Rank (before): 1663

## WFYERLVSLILRDTKM
[3]
  Population: 0.00402%

## YAFTGHLRHHLQAKDH
[6]
  Rank (after): 120
[7]
  Rank (before): 394

## SSLREVLWRLLELSKK
[6]
  Rank (after): 178
[7]
  Rank (before): 3204

## LKWGDPYFWSNCVMR
[13]
  P3_MAL Rank (after): 699
[14]
  P3_MAL Rank (before): 2216

## YAFTGHLHRYLMPRGV
[13]
  P3_MAL Rank (after): 698
[14]
  P3_MAL Rank (before): 1420

## YAFTGHLQRYLVQRGE
[13]
  P3_MAL Rank (after): 719
[14]
  P3_MAL Rank (before): 1435

## AFFLAQLKSVMGNPTM
[8]
  P8_MAL Rank (after): 645
[9]
  P8_MAL Rank (before): 1580

## RGCLSHLRHHLHAKEH
[8]
  P3_MAL Rank (after): 590
[9]
  P3_MAL Rank (before): 2423

## CFYERLVNLILRDTKV
[10]
  P8_MAL Rank (after): 205
[11]
  P8_MAL Rank (before): 1107

## AFLYTVLINLTHTTYF
[1]
  P8_MAL Rank (after): 517
[2]
  P8_MAL Rank (before): 1886
